Test results: article PMC11855827, “High-Throughput Screening of Five Compound Libraries for Anthelmintic Activity and Toxicity Leads to the Discovery of Two Flavonoid Compounds” (International Journal of Molecular Sciences, 2025)
Counter-ions that a name gives are not always drawn. Like-named read-outs stand apart in the source and are kept apart here.

Test system: C. elegans
Assay: microbe, parasite or virus in culture
Conditions: Caenorhabditis elegans
[1] = 0 h, read-out: Percentage of motility inhibition 0 h, Table S2, C. elegans SS assay, 110 μM, 0 h, averages of 4 data points
[2] = 24 h, read-out: Percentage of motility inhibition 24 h, Table S2, C. elegans SS assay, 110 μM, 24 h, averages of 4 data points
[3] = 0 h, read-out: Percentage of motility inhibition 0 h
[4] = 24 h, read-out: Percentage of motility inhibition 24 h

Compound: O=C1C=CC(=O)N1 [Maleimide]
- inhibition at 110 µM [1]: 25%
- inhibition at 110 µM [2]: 32%

Compound: O=C(O)CC(O)C(=O)O (stereo not shown) [Malic acid]
- inhibition at 110 µM [1]: 2%
- inhibition at 110 µM [2]: 14%

Compound: C=C1[C@@H]2CC[C@@H]3[C@](C2)(C(=O)[C@@H](O)[C@@H]2C(C)(C)[C@H]4CC(=O)[C@@]32CO4)[C@@H]1OC(C)=O [Maoecrystal A]
- inhibition at 110 µM [1]: 7%
- inhibition at 110 µM [2]: 2%

Compound: CN1CCN(c2c(F)cc3c(=O)c(C(=O)O)cn4c3c2OCN4C)CC1 [Marbofloxacin]
- inhibition at 110 µM [1]: 23%
- inhibition at 110 µM [2]: 9%

Compound: CC1(C)CC[C@]2(C(=O)O)CC[C@]3(C)C(=CC[C@@H]4[C@@]5(C)C[C@@H](O)[C@H](O)C(C)(C)[C@@H]5CC[C@]43C)[C@@H]2C1 [Maslinic acid]
- inhibition at 110 µM [1]: 0%
- inhibition at 110 µM [2]: 5%

Compound: C[C@H](Cc1ccc(O)c(O)c1)[C@@H](C)Cc1ccc(O)c(O)c1 [Masoprocol]
- inhibition at 110 µM [1]: 7%
- inhibition at 110 µM [2]: 17%

Compound: O=C1CCC[C@@H]2[C@H]3CCCN4CCC[C@@H](CN12)[C@@H]34 [Matrine]
- inhibition at 110 µM [2]: 2%

Compound: COc1cc2cc(c1Cl)N(C)C(=O)CC(O)C1(C)OC1C(C)C1CC(O)(NC(=O)O1)C(OC)/C=C/C=C(\C)C2 (stereo not shown) [Maytansinol]
- inhibition at 110 µM [1]: 0%
- inhibition at 110 µM [2]: 0%

Compound: COC(=O)Nc1nc2ccc(C(=O)c3ccccc3)cc2[nH]1 [Mebendazole]
- inhibition at 110 µM [1]: 18%
- inhibition at 110 µM [2]: 37%

Compound: CC(=O)O[C@]1(C(C)=O)CC[C@H]2[C@@H]3C[C@H](C)C4=CC(=O)CC[C@]4(C)[C@H]3CC[C@@]21C [Medroxyprogesterone acetate]
- inhibition at 110 µM [1]: 11%
- inhibition at 110 µM [2]: 6%

Compound: CN1C(=O)/C(=C2/C(=O)Nc3ccccc32)c2ccccc21 [Meisoindigo]
- inhibition at 110 µM [1]: 0%
- inhibition at 110 µM [2]: 0%

Compound: COc1ccc2[nH]cc(CCNC(C)=O)c2c1 [Melatonin]
- inhibition at 110 µM [1]: 66%
- inhibition at 110 µM [2]: 24%

Compound: CC1=CC(=O)c2ccccc2C1=O [Menadione]
- inhibition at 110 µM [1]: 0%
- inhibition at 110 µM [2]: 0%

Compound: CC(C)[C@@H]1CC[C@@H](C)CC1=O [Menthone]
- inhibition at 110 µM [1]: 17%
- inhibition at 110 µM [2]: 17%

Compound: COc1ccc(O)cc1 [Mequinol]
- inhibition at 110 µM [1]: 16%
- inhibition at 110 µM [2]: 11%

Compound: COc1c2occc2cc2ccc(=O)oc12 [Methoxsalen]
- inhibition at 110 µM [1]: 23%
- inhibition at 110 µM [2]: 5%

Compound: COC(=O)c1ccccc1O [Methyl Salicylate]
- inhibition at 110 µM [1]: 21%
- inhibition at 110 µM [2]: 12%

Compound: COC(=O)[C@]12CCCC(C)(C)[C@@H]1CCc1cc(C(C)C)c(O)c(O)c12 [Methyl carnosate]
- inhibition at 110 µM [1]: 0%
- inhibition at 110 µM [2]: 63%

Compound: COC(=O)c1cccnc1 [Methyl nicotinate]
- inhibition at 110 µM [3]: 0%
- inhibition at 110 µM [4]: 0%

Compound: Cc1ncc([N+](=O)[O-])n1CCO [Metronidazole]
- inhibition at 110 µM [1]: 34%
- inhibition at 110 µM [2]: 14%

Compound: C=C1C(=O)O[C@H]2[C@H]1CCC(C)=C1CC[C@@](C)(O)[C@@H]12 [Micheliolide]
- inhibition at 110 µM [1]: 0%
- inhibition at 110 µM [2]: 0%

Compound: CCC(=O)O[C@@H]1CC(=O)O[C@H](C)C/C=C/C=C/[C@H](O)[C@H](C)C[C@H](CC=O)[C@H](O[C@@H]2O[C@H](C)[C@@H](O[C@H]3C[C@@](C)(O)[C@@H](OC(=O)CC)[C@H](C)O3)[C@H](N(C)C)[C@H]2O)[C@H]1OC [Midecamycin]
- inhibition at 110 µM [1]: 16%
- inhibition at 110 µM [2]: 14%

Compound: CC(C)C1=Cc2ccc3c(c2C(=O)C1=O)CCCC3(C)C [Miltirone]
- inhibition at 110 µM [1]: 0%
- inhibition at 110 µM [2]: 36%

Compound: NC(=O)c1ncn([C@@H]2O[C@H](CO)[C@@H](O)[C@H]2O)c1O [Mizoribine]
- inhibition at 110 µM [1]: 28%
- inhibition at 110 µM [2]: 29%

Compound: C[C@H](CC[C@@H](O)C(C)(C)O)[C@H]1CC[C@@]2(C)[C@@H]3CC=C4[C@@H](CC[C@H](O)C4(C)C)[C@]3(C)[C@H](O)C[C@]12C [Mogrol]
- inhibition at 110 µM [1]: 5%
- inhibition at 110 µM [2]: 2%

Compound: COC(=O)c1c2c(c3ccccc3c1O)OC(C)(C)C=C2 [Mollugin]
- inhibition at 110 µM [1]: 1%
- inhibition at 110 µM [2]: 12%

Compound: C[C@H]1C(=O)O[C@@H]2CC[N+]3([O-])CC=C(COC(=O)[C@](C)(O)[C@]1(C)O)[C@H]23 (stereo partly shown) [Monocrotaline N‐Oxide]
- inhibition at 110 µM [1]: 0%
- inhibition at 110 µM [2]: 0%

Compound: COC(=O)/C=C/C(=O)O [Monomethyl fumarate]
- inhibition at 110 µM [1]: 0%
- inhibition at 110 µM [2]: 15%

Compound: O=c1c(O)c(-c2ccc(O)cc2O)oc2cc(O)cc(O)c12 [Morin]
- inhibition at 110 µM [1]: 44%
- inhibition at 110 µM [2]: 17%

Compound: COC(=O)C1=CO[C@@H](O[C@@H]2O[C@H](CO)[C@@H](O)[C@H](O)[C@H]2O)[C@@H]2[C@H](C)O[C@@H](O)C[C@H]12 [Morroniside]
- inhibition at 110 µM [1]: 5%
- inhibition at 110 µM [2]: 42%

Compound: CC(C)=CCc1c(-c2ccc(O)cc2O)oc2c3c(cc(O)c2c1=O)OC(C)(C)C=C3 [Morusin]
- inhibition at 110 µM [1]: 33%
- inhibition at 110 µM [2]: 14%

Compound: C[C@@]12C[C@@]3(O)O[C@@H](O1)[C@]1(COC(=O)c4ccc(O)cc4)[C@@H]3C[C@]12O[C@@H]1O[C@H](COC(=O)c2ccccc2)[C@@H](O)[C@H](O)[C@H]1O [Mudanpioside C]
- inhibition at 110 µM [1]: 23%
- inhibition at 110 µM [2]: 41%

Compound: C/C(=C\C(=O)OCCCCCCCCC(=O)O)C[C@@H]1OC[C@H](C[C@@H]2O[C@H]2[C@@H](C)[C@H](C)O)[C@@H](O)[C@H]1O [Mupirocin]
- inhibition at 110 µM [1]: 10%
- inhibition at 110 µM [2]: 11%

Compound: CCCCC(C#N)(Cn1cncn1)c1ccc(Cl)cc1 (stereo not shown) [Myclobutanil]
- inhibition at 110 µM [1]: 30%
- inhibition at 110 µM [2]: 12%

Compound: c1cncc(C2=NCCC2)c1 [Myosmine]
- inhibition at 110 µM [1]: 18%
- inhibition at 110 µM [2]: 24%

Compound: C=CC(=C)CCC=C(C)C [Myrcene]
- inhibition at 110 µM [1]: 8%
- inhibition at 110 µM [2]: 23%

Compound: O=c1c(O)c(-c2cc(O)c(O)c(O)c2)oc2cc(O)cc(O)c12 [Myricetin]
- inhibition at 110 µM [3]: 30%
- inhibition at 110 µM [4]: 7%

Compound: CC1CCc2c(N3CCC(O)CC3)c(F)cc3c(=O)c(C(=O)O)cn1c23 (stereo not shown) [Nadifloxacin]
- inhibition at 110 µM [1]: 0%
- inhibition at 110 µM [2]: 0%

Compound: CCCCCCCCCC(=O)O[C@H]1CC[C@H]2[C@@H]3CCC4=CC(=O)CC[C@@H]4[C@H]3CC[C@]12C [Nandrolone decanoate]
- inhibition at 110 µM [1]: 29%
- inhibition at 110 µM [2]: 31%

Compound: COc1cc(-c2oc3cc(O)cc(O)c3c(=O)c2O[C@@H]2O[C@H](CO[C@@H]3O[C@@H](C)[C@H](O)[C@@H](O)[C@H]3O)[C@@H](O)[C@H](O)[C@H]2O)ccc1O [Narcissin]
- inhibition at 110 µM [1]: 42%
- inhibition at 110 µM [2]: 25%

Compound: C[C@@H]1CCC=C2C(=O)C[C@H]3OOC(C)(C)[C@H]3[C@]21C [Nardosinone]
- inhibition at 110 µM [1]: 0%
- inhibition at 110 µM [2]: 13%

Compound: C[C@@H]1O[C@@H](O[C@H]2[C@H](Oc3cc(O)c4c(c3)O[C@H](c3ccc(O)cc3)CC4=O)O[C@H](CO)[C@@H](O)[C@@H]2O)[C@H](O)[C@H](O)[C@H]1O [Naringin]
- inhibition at 110 µM [1]: 0%
- inhibition at 110 µM [2]: 3%

Compound: C[C@@H]1O[C@@H](OC[C@H]2O[C@@H](Oc3cc(O)c4c(c3)O[C@H](c3ccc(O)cc3)CC4=O)[C@H](O)[C@@H](O)[C@@H]2O)[C@H](O)[C@H](O)[C@H]1O [Narirutin]
- inhibition at 110 µM [1]: 39%
- inhibition at 110 µM [2]: 19%
